Experimental data reported in patent publication US20220220103A1, “CYCLIN-DEPENDENT KINASE INHIBITORS” (SPV THERAPEUTICS INC., priority 2018, published 2022).

Tests used:
[1] = biological target: CDK6-CYCLIND3 (Homo sapiens, UniProt Q00534); experiment: Microfluidic LabChip inhibition assay, CDK6-CYCLIND3; type: biochemical; settings: Table 2; ATP 300 μM, 25° C.; read-out: CDK6 IC50
Description: (§1) The reaction was terminated by the addition of EDTA. The plates were analyzed using a Caliper LabChip 3000.
(§2) Additional inhibition assays were performed as described above.

[2] = biological target: CDK4-CYCLIND1 (Homo sapiens, UniProt P11802); experiment: Microfluidic LabChip inhibition assay, CDK4-CYCLIND1; type: biochemical; settings: Table 2; ATP 200 μM, 25° C.; read-out: CDK4 IC50
Description: as §1, §2

CDK6-CYCLIND3, sequence (Q00534 whole entry): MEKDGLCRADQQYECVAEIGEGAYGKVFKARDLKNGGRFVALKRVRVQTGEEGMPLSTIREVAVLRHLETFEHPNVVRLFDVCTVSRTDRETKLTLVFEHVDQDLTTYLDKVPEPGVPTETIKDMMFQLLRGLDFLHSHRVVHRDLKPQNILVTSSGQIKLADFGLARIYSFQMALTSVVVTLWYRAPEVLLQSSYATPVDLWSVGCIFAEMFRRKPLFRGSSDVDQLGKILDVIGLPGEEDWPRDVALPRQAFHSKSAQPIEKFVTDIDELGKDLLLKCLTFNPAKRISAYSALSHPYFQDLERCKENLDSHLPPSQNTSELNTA
CDK6-CYCLIND3, sequence (P30281 whole entry partner): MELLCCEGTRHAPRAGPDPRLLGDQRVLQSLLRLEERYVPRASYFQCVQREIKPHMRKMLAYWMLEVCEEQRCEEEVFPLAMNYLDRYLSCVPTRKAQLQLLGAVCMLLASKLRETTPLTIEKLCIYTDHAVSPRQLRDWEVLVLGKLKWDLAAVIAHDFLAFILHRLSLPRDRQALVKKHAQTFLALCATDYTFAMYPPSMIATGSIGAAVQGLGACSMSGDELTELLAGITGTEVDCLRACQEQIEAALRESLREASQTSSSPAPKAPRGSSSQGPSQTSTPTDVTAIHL
CDK4-CYCLIND1, sequence (P11802 whole entry): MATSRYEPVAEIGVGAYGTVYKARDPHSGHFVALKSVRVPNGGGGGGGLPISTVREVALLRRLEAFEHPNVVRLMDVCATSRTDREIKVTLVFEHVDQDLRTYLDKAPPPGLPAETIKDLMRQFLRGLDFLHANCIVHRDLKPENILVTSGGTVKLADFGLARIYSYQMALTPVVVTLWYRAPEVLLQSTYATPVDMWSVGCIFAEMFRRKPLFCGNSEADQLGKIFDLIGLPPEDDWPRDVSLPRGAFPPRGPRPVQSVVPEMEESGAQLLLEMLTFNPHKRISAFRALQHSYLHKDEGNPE
CDK4-CYCLIND1, sequence (P24385 whole entry partner): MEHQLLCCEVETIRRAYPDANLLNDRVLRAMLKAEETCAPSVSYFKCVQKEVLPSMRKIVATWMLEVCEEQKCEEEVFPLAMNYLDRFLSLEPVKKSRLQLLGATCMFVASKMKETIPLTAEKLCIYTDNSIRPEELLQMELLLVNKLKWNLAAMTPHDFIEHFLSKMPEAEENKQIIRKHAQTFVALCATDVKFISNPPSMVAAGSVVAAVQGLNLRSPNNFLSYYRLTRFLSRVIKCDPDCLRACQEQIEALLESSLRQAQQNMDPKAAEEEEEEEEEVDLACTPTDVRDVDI

Row | IC50 [1] [nM] | IC50 [2] [nM] | SMILES
1 | 41.5 | 31.1 | CN1CCN(c2ccc(Nc3ncc4cc(C#N)c(=O)n(C56CC(C5)C6)c4n3)cc2)CC1 [Compound B1, 8-(bicyclo[1.1.1]pentan-1-yl)-2-((4-(4-methylpiperazin-1-yl)phenyl)amino)-7-oxo-7,8-dihydropyrido[2,3-d]pyrimidine-6-carbonitrile]
2 | 253 | 307 | N#Cc1cc2cnc(Nc3ccc(N4CCNCC4)cn3)nc2n(C23CC(C2)C3)c1=O [Compound B2, 8-(bicyclo[1.1.1]pentan-1-yl)-7-oxo-2-((5-(piperazin-1-yl)pyridin-2-yl)amino)-7,8-dihydropyrido[2,3-d]pyrimidine-6-carbonitrile]
3 | 432 | 504 | CN1CCN(c2ccc(Nc3ncc4cc(C#N)c(=O)n(C56CC(C5)C6)c4n3)nc2)CC1 [Compound B3, 8-(bicyclo[1.1.1]pentan-1-yl)-2-((5-(4-methylpiperazin-1-yl)pyridin-2-yl)amino)-7-oxo-7,8-dihydropyrido[2,3-d]pyrimidine-6-carbonitrile]
4 | 154 | 213 | CC(C)N1CCN(c2ccc(Nc3ncc4cc(C#N)c(=O)n(C56CC(C5)C6)c4n3)nc2)CC1 [Compound B4, 8-(bicyclo[1.1.1]pentan-1-yl)-2-((5-(4-isopropylpiperazin-1-yl)pyridin-2-yl)amino)-7-oxo-7,8-dihydropyrido[2,3-d]pyrimidine-6-carbonitrile]
5 | ≥ 30000 | 25700 | CN1CCN(c2cnc(Nc3ncc4cc(C#N)c(=O)n(C5CCCC5)c4n3)cc2C(F)(F)F)CC1 [Compound B5, 8-cyclopentyl-2-((5-(4-methylpiperazin-1-yl)-4-(trifluoromethyl)pyridin-2-yl)amino)-7-oxo-7,8-dihydropyrido[2,3-d]pyrimidine-6-carbonitrile]
6 | 120 | 97.8 | CN(C)CCOc1ccc(Nc2ncc3cc(C#N)c(=O)n(C4CCCC4)c3n2)nc1 [Compound B6, 8-cyclopentyl-2-((5-(2-(dimethylamino)ethoxy)pyridin-2-yl)amino)-7-oxo-7,8-dihydropyrido[2,3-d]pyrimidine-6-carbonitrile]
7 | 103 | 101 | N#Cc1cc2cnc(Nc3ccc(OCCN4CCCC4)cn3)nc2n(C2CCCC2)c1=O [Compound B7, 8-cyclopentyl-7-oxo-2-((5-(2-(pyrrolidin-1-yl)ethoxy)pyridin-2-yl)amino)-7,8-dihydropyrido[2,3-d]pyrimidine-6-carbonitrile]
8 | 55.3 | 29.1 | N#Cc1cc2cnc(Nc3ccc(OCCN4CCCCC4)nc3)nc2n(C2CCCC2)c1=O [Compound B8, 8-cyclopentyl-7-oxo-2-((6-(2-(piperidin-1-yl)ethoxy)pyridin-3-yl)amino)-7,8-dihydropyrido[2,3-d]pyrimidine-6-carbonitrile]
9 | 37.2 | 33.8 | N#Cc1cc2cnc(Nc3ccc(C4=CCNCC4)cn3)nc2n(C2CCCC2)c1=O [Compound B9, 8-cyclopentyl-7-oxo-2-((1′,2′,3′,6′-tetrahydro-[3,4′-bipyridin]-6-yl)amino)-7,8-dihydropyrido[2,3-d]pyrimidine-6-carbonitrile]
10 | 9240 | 2820 | N#Cc1cc2cnc(Nc3cc(C(F)(F)F)c(N4CCNCC4)cn3)nc2n(C2CCCC2)c1=O [Compound B10, 8-cyclopentyl-7-oxo-2-((5-(piperazin-1-yl)-4-(trifluoromethyl)pyridin-2-yl)amino)-7,8-dihydropyrido[2,3-d]pyrimidine-6-carbonitrile]
11 | 133 | 37.6 | CN(C)CCOc1ccc(Nc2ncc3cc(C#N)c(=O)n(C4CCCC4)c3n2)cn1 [Compound B11, 8-cyclopentyl-2-((6-(2-(dimethylamino)ethoxy)pyridin-3-yl)amino)-7-oxo-7,8-dihydropyrido[2,3-d]pyrimidine-6-carbonitrile]
12 | 61.9 | 39.3 | N#Cc1cc2cnc(Nc3ccc(OCCN4CCCCC4)cn3)nc2n(C2CCCC2)c1=O [Compound B12, 8-cyclopentyl-7-oxo-2-((5-(2-(piperidin-1-yl)ethoxy)pyridin-2-yl)amino)-7,8-dihydropyrido[2,3-d]pyrimidine-6-carbonitrile]
13 | 798 | 571 | N#Cc1cc2cnc(Nc3ccc(N4CCN5CCC4CC5)cn3)nc2n(C2CCCC2)c1=O [Compound B13, 2-((5-(1,4-diazabicyclo[3.2.2]nonan-4-yl)pyridin-2-yl)amino)-8-cyclopentyl-7-oxo-7,8-dihydropyrido[2,3-d]pyrimidine-6-carbonitrile]
14 | 7.27 | 2.03 | N#Cc1cc2cnc(Nc3ccc(N4CCNCC4)c(F)c3)nc2n(C2CCCC2)c1=O [Compound B14, 8-cyclopentyl-2-((3-fluoro-4-(piperazin-1-yl)phenyl)amino)-7-oxo-7,8-dihydropyrido[2,3-d]pyrimidine-6-carbonitrile]
15 | 14.3 | 4.62 | CN(C)CCOc1ccc(Nc2ncc3cc(C#N)c(=O)n(C4CCCC4)c3n2)cc1 [Compound B15, 8-cyclopentyl-2-((4-(2-(dimethylamino)ethoxy)phenyl)amino)-7-oxo-7,8-dihydropyrido[2,3-d]pyrimidine-6-carbonitrile]
16 | 6.32 | 1.8 | CC(C)N1CCN(c2ccc(Nc3ncc4cc(C#N)c(=O)n(C5CCCC5)c4n3)cc2)CC1 [Compound B16, 8-cyclopentyl-2-((4-(4-isopropylpiperazin-1-yl)phenyl)amino)-7-oxo-7,8-dihydropyrido[2,3-d]pyrimidine-6-carbonitrile]
17 | 7.71 | 1.78 | CN1CCN(c2ccc(Nc3ncc4cc(C#N)c(=O)n(C5CCCC5)c4n3)cc2F)CC1 [Compound B17, 8-cyclopentyl-2-((3-fluoro-4-(4-methylpiperazin-1-yl)phenyl)amino)-7-oxo-7,8-dihydropyrido[2,3-d]pyrimidine-6-carbonitrile]
18 | 10.4 | 2.31 | CC(C)N1CCN(c2ccc(Nc3ncc4cc(C#N)c(=O)n(C5CCCC5)c4n3)cc2F)CC1 [Compound B18, 8-cyclopentyl-2-((3-fluoro-4-(4-isopropylpiperazin-1-yl)phenyl)amino)-7-oxo-7,8-dihydropyrido[2,3-d]pyrimidine-6-carbonitrile]
19 | 89.8 | 69.1 | CC(C)N1CCN(c2ccc(Nc3ncc4cc(C#N)c(=O)n(C5CCCC5)c4n3)c(F)c2)CC1 [Compound B19, 8-cyclopentyl-2-((2-fluoro-4-(4-isopropylpiperazin-1-yl)phenyl)amino)-7-oxo-7,8-dihydropyrido[2,3-d]pyrimidine-6-carbonitrile]
20 | ≥ 30000 | 15700 | N#Cc1cc2cnc(N3CCC(N4CCOCC4)CC3)nc2n(C2CCCC2)c1=O [Compound B20, 8-cyclopentyl-2-(4-morpholinopiperidin-1-yl)-7-oxo-7,8-dihydropyrido[2,3-d]pyrimidine-6-carbonitrile]
21 | > 30000 | > 30000 | N#Cc1ccc(N2CCN(c3ncc4cc(C#N)c(=O)n(C5CCCC5)c4n3)CC2)cc1 [Compound B21, 2-(4-(4-cyanophenyl)piperazin-1-yl)-8-cyclopentyl-7-oxo-7,8-dihydropyrido[2,3-d]pyrimidine-6-carbonitrile]
22 | 19.7 | 6.93 | N#Cc1cc2cnc(Nc3ccc(N4CCNCC4)nc3)nc2n(C2CCCC2)c1=O [Compound B22, 8-cyclopentyl-7-oxo-2-((6-(piperazin-1-yl)pyridin-3-yl)amino)-7,8-dihydropyrido[2,3-d]pyrimidine-6-carbonitrile]
23 | 33.2 | 11.5 | CN1CCN(c2ccc(Nc3ncc4cc(C#N)c(=O)n(C5CCCC5)c4n3)cn2)CC1 [Compound B23, 8-cyclopentyl-2-((6-(4-methylpiperazin-1-yl)pyridin-3-yl)amino)-7-oxo-7,8-dihydropyrido[2,3-d]pyrimidine-6-carbonitrile]
24 | 35.8 | 11.1 | N#Cc1cc2cnc(Nc3ccc(N4CCOCC4)c(F)c3)nc2n(C2CCCC2)c1=O [Compound B24, 8-cyclopentyl-2-((3-fluoro-4-morpholinophenyl)amino)-7-oxo-7,8-dihydropyrido[2,3-d]pyrimidine-6-carbonitrile]
25 | 19 | 7.51 | CC(C)N1CCN(c2ccc(Nc3ncc4cc(C#N)c(=O)n(C5CCCC5)c4n3)nc2)CC1 [Compound B25, 8-cyclopentyl-2-((5-(4-isopropylpiperazin-1-yl)pyridin-2-yl)amino)-7-oxo-7,8-dihydropyrido[2,3-d]pyrimidine-6-carbonitrile]
26 | 36.8 | 15.4 | N#Cc1cc2cnc(Nc3ccc(N4CCNCC4)cc3F)nc2n(C2CCCC2)c1=O [Compound B26, 8-cyclopentyl-2-((2-fluoro-4-(piperazin-1-yl)phenyl)amino)-7-oxo-7,8-dihydropyrido[2,3-d]pyrimidine-6-carbonitrile]
27 | 1400 | 457 | CN1CCN(c2ccc(Nc3ncc4cc(C#N)c(=O)n(C5CCCC5)c4n3)c(F)c2)CC1 [Compound B27, 8-cyclopentyl-2-((2-fluoro-4-(4-methylpiperazin-1-yl)phenyl)amino)-7-oxo-7,8-dihydropyrido[2,3-d]pyrimidine-6-carbonitrile]
28 | 120 | 45 | N#Cc1cc2cnc(Nc3ccc(OCCN4CCCC4)nc3)nc2n(C2CCCC2)c1=O [Compound B28, 8-cyclopentyl-7-oxo-2-((6-(2-(pyrrolidin-1-yl)ethoxy)pyridin-3-yl)amino)-7,8-dihydropyrido[2,3-d]pyrimidine-6-carbonitrile]
29 | > 30000 | > 30000 | CC(C)N1CCN(c2cnc(Nc3ncc4cc(C#N)c(=O)n(C5CCCC5)c4n3)cc2C(F)(F)F)CC1 [Compound B29, 8-cyclopentyl-2-((5-(4-isopropylpiperazin-1-yl)-4-(trifluoromethyl)pyridin-2-yl)amino)-7-oxo-7,8-dihydropyrido[2,3-d]pyrimidine-6-carbonitrile]
